Molecules are shown by their SMILES. Several values for one entry are separate records, joined by “and”; a condition that tells them apart may be missing. Equal entries are not always repeated. Where two headings read alike, the source gives them in different places.

The target in one data set is Chk1 (Homo sapiens (Human), UniProt O14757). In words: biochemical. It counts as biochemical. The conditions noted are these: read-out: Chk1 inhibition IC50. Here is the method:
The compounds of the present disclosure used in the experiments were self-prepared, and their chemical names and structural formulas were shown in the preparation embodiments of each compound. The determination mixture containing embodiment compounds of the present disclosure and Chk1 and Chk2 kinases were incubated in a microtiter plate, and CHK1 inhibitor activity of compounds were tested by monitoring the phosphorylation of Chk1 and Chk2 kinases on a synthetic peptide substrate with a specific amino acid sequence ([…], SEQ ID NO: 1). The test was carried out on the KinaseProfiler™ protein kinase activity detection platform of Eurofins, and the experimental results were provided by the company. The procedure was as follows: Chk1 and Chk2 kinases were diluted with 20 mM MOPS (morpholinpropane sulfonic acid), 1 mM EDTA (ethylenediaminetetraacetic acid), 0.04% Brij-35, 5% glycerol, 0.1% 2-mercaptoethanol, 1 mg/mL BSA (bovine serum albumin) and added to the reaction system, and the reaction system contained the embodiment compounds, 8 mM MOPS pH 7.0, 0.2 mM EDTA, […] polypeptide substrate ([…], SEQ ID NO: 1), 10 mM magnesium acetate and a certain concentration of [γ-33P]-ATP (the strength was about 500 cpm/pmol). A mixture solution of Mg^2′ and ATP (adenosine triphosphate) was added to initiate the reaction and the reaction solution was incubated at room temperature for 40 min. 0.5% Phosphate buffer was added to terminate the reaction. 10 μL of the reaction solution was filtered four times on a continuous filter P30, washed three times with […], and once with methanol, each wash for 4 min. The value was read with scintillation counting method after drying.

A further data set has as its target Chk2 (Homo sapiens (Human), UniProt O96017). In words: Chk2 kinase activity test, Eurofins KinaseProfiler, [γ-33P]-ATP peptide substrate phosphorylation. It counts as biochemical. As to the method:
The compounds of the present disclosure used in the experiments were self-prepared, and their chemical names and structural formulas were shown in the preparation embodiments of each compound. […] The test was carried out on the KinaseProfiler™ protein kinase activity detection platform of Eurofins, and the experimental results were provided by the company. […] A mixture solution of Mg^2′ and ATP (adenosine triphosphate) was added to initiate the reaction and the reaction solution was incubated at room temperature for 40 min. 0.5% Phosphate buffer was added to terminate the reaction. […] The value was read with scintillation counting method after drying.

Data set [1] can be described thus: Pharmacokinetic evaluation of compounds in mice. It counts as in vivo. To be noted: mouse, plasma, female C57BL/6 mice; for bioavailability: oral, gavage 10 mg/kg vs intravenous 1 mg/kg, read-out: F (bioavailability); for AUC(0-t): 0 to 24 h; for Cmax: route not given (gavage group 10 mg/kg); for half-life: read-out: Intravenous injection T1/2 (converted).
In data set [2] the test system is human ovarian cancer OVCAR-3 subcutaneous xenograft tumor. The data set is described as follows: In vivo pharmacodynamics, human ovarian cancer OVCAR-3 subcutaneous xenograft tumor BALB/c nude mouse model. Set-up: species or system BALB/c nude mice. To be noted: oral twice a day, Compound 18 75 mg/kg, Compound 19 25 mg/kg; for Tumor volume (D 21): D 21, mean ± SEM, n = 6. As to the method:
Experimental purpose: To evaluate the in vivo efficacy of the compounds of the present disclosure in the human ovarian cancer OVCAR-3 subcutaneous xenograft tumor BALB/c nude mouse model.
Experimental animal: Female BALB/c nude mice, 6-8 weeks old, weighing 18-22 grams; supplier: Beijing Vital River Laboratory Animal Technology Co., Ltd. Experimental methods and steps:
Human ovarian cancer OVCAR-3 (ATCC-HTB-161) cells were cultured in vitro in monolayer, and the culture conditions were RPMI1640 culture medium with 20% fetal bovine serum, 0.01 mg/mL bovine insulin, and 1% double antibody, and the cells were incubated at 37° C., 5% CO2 incubator. Routine digestion with trypsin was performed twice a week for passage. When the cell saturation was 80%-90% and the number reached the requirement, the cells were harvested, counted and inoculated.
0.1 mL (10×10^6 cells) of OVCAR-3 cells were subcutaneously inoculated into the right back of each mouse, and the mice were administrated in groups when the average tumor volume reached 122 mm^3.
Compound 18, compound 19 were formulated as 2 mg/mL clear solutions with 10% dimethyl sulfoxide-20% polyethylene glycol 400-5% Tween 80-65% water.
Tumor diameters were measured with vernier calipers twice a week. The calculation formula of tumor volume was. V=0.5a×b^2, where a and b represented the long and short diameters of the tumor, respectively.
The antitumor efficacy of the compounds was evaluated by TGI (%). TGI (%), reflecting tumor growth inhibition rate. TGI (%/c)=[(1-(average tumor volume at the end of administration of a certain treatment group-average tumor volume at the beginning of administration of this treatment group)/(average tumor volume at the end of treatment in the solvent control group-average tumor volume at the beginning of administration of this solvent control group)]×100%. The relative tumor volume (RTV) was calculated according to the results of tumor measurement, and the calculation formula was RTV=Vt/V0, where V0 was measured at the time of group administration (i.e., D0), and Vt was the average tumor volume at the time of one measurement.
Statistical analysis was performed using SPSS software based on RTV data at the end of the test. The Ttest was used for the comparison between two groups, and the one-way ANOVA was used for the comparison between three or more groups. If the variance was homogeneous (no significant difference in F value), Tukey's method was used for analysis; if the variance was not homogeneous (significant difference in F value), Games-Howell method was used for test. p<0.05 was considered that a significant difference was performed.
For orientation: A xenograft is tissue or cells of one species grown in another, often human tumour cells in immunodeficient mice.

Setting [3] is: po, gavage 10 mg/kg, read-out: Oral AUC0-last.
The mark [4] stands for this setting: intravenous injection 1 mg/kg, read-out: Intravenous Injection AUC0-last.

Sequence of Chk1 (O14757 whole entry): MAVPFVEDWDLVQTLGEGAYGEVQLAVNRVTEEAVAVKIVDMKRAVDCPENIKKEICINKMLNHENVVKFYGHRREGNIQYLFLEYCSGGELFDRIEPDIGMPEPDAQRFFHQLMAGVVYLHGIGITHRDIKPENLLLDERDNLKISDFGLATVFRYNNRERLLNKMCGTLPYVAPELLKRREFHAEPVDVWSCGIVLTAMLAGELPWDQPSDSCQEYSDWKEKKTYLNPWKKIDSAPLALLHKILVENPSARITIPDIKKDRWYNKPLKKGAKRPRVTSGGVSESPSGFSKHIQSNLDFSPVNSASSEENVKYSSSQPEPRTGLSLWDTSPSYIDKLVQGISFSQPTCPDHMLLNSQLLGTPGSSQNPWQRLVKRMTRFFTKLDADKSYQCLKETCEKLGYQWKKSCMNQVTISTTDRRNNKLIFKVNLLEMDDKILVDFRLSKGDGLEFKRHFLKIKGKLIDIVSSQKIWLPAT
Sequence of Chk2 (O96017 whole entry): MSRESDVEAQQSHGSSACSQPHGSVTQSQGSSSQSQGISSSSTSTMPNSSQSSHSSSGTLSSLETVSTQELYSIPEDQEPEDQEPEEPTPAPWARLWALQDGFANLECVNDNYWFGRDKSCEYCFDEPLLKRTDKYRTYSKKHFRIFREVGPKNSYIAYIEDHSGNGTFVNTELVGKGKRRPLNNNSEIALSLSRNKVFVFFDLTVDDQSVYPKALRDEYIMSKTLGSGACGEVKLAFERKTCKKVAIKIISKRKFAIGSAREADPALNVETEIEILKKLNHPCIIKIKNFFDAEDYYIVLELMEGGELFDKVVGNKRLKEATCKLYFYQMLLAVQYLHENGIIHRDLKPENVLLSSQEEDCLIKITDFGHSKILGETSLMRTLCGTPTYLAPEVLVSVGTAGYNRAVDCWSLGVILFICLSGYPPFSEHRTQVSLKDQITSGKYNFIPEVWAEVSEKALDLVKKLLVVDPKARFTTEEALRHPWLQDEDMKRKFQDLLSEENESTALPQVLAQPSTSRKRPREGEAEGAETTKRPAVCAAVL

With `COc1nc(C(F)(F)F)ccc1-c1cc(Nc2cnc3ccn(C4CCNCC4)c3n2)n[nH]1` [Compound 9], the IC50 came out at 2 nM on Chk1 and 1010 nM at Chk2 (read-out: Chk2 inhibition IC50).

For the compound `COc1nc(C)ccc1-c1cc(Nc2cnc3ccn(C4CCN(C)CC4)c3n2)n[nH]1` [Compound 18], in data set [1], the bioavailability was determined as 33.2%. The AUC(0-t) in data set [1] (setting [3]) came out at 3.63 µM·h. The compound also returned a Cmax in data set [1] (po) of 1220 nM. Besides, in data set [1] (intravenous injection 1 mg/kg), the distribution volume (Vd) was found to be 1.9 L/kg, the clearance worked out at 35.3 mL/min/kg and the half-life is 0.9 h. The AUC(0-t) in data set [1] (setting [4]) is 1.14 µM·h. Moreover, in data set [2], the “Tumor volume (D 21)” value came out at 180 ± 16 mm^3, the “RTV (D 21)” value is listed as 1.49 and the “TGI (%) (D 21)” value is listed as 92.34%. Also, in data set [2] (listed as compound 18), the “Tumor volume (D 21)” value is reported as 180 mm^3 and the “TGI (%) (D 21)” value is recorded as 92.3%.

For `COc1nc(C)ccc1-c1cc(Nc2cnc3c(F)cn(C4CCNCC4)c3n2)n[nH]1` [Compound 2], the IC50 on Chk1 worked out at 2 nM.

Regarding `COc1cc(C)ccc1-c1cc(Nc2cnc3ccn(C4CCNCC4)c3n2)n[nH]1` [Compound 13], the figures for the half-maximal inhibitory concentration (IC50) on Chk1 and on Chk2 (read-out: Chk2 inhibition IC50) were 2 nM and 84 nM, respectively.

For the compound `COc1cc(F)ccc1-c1cc(Nc2cnc3ccn(C4CCNCC4)c3n2)n[nH]1` [Compound 12], the IC50 is 1 nM on Chk1 and 32 nM on Chk2 (read-out: Chk2 inhibition IC50).

For `COc1cc(Cl)ccc1-c1cc(Nc2cnc3ccn(C4CCNCC4)c3n2)n[nH]1` [Compound 14], the IC50 was 1 nM at Chk1 and 73 nM on Chk2 (read-out: Chk2 inhibition IC50).

Consider `[2H]C([2H])([2H])Oc1nc(C)ccc1-c1cc(Nc2cnc3c(F)cn(C4CCN(C)CC4)c3n2)n[nH]1` [Compound 20], for which, in data set [1], the bioavailability is 41.9%. Further, the AUC(0-t) in data set [1] (setting [3]) came to 5.13 µM·h. In data set [1] (po), this compound came in with a Cmax of 1260 nM. Moreover, in data set [1] (intravenous injection 1 mg/kg), the Vd came to 2.7 L/kg, the clearance amounted to 30.9 mL/min/kg and the half-life was 1.4 h. In addition, the AUC(0-t) in data set [1] (setting [4]) stood at 1.21 µM·h. The IC50 at Chk1 is 2 nM. In addition, half-maximal inhibition at Chk2 (IC50) required 282 nM.

In the case of `COc1nc(C)ccc1-c1cc(Nc2cnc3c(F)cn(C4CCN(C)CC4)c3n2)n[nH]1` [Compound 19], in data set [1], the bioavailability came out at 39.1%. Also, the AUC(0-t) in data set [1] (setting [3]) is 3.91 µM·h. The maximum concentration (Cmax) in data set [1] (po) came out at 1220 nM. In data set [1] (intravenous injection 1 mg/kg), the Vd turned out to be 2.4 L/kg, the clearance was found to be 33.1 mL/min/kg and the half-life was 1.1 h. Further, in data set [1] (setting [4]), the AUC(0-t) was determined as 1.15 µM·h. Also, in data set [2], the “Tumor volume (D 21)” value is 131 mm^3 and 131 ± 12 mm^3; the “RTV (D 21)” value turned out to be 1.14; the “TGI (%) (D 21)” value is 98.8% and 98.76%.

Consider `[2H]C([2H])([2H])Oc1nc(C)ccc1-c1cc(Nc2cnc3ccn(C4CCN(C([2H])([2H])[2H])CC4)c3n2)n[nH]1` [Compound 22], for which the IC50 came out at 1 nM at Chk1 and 386 nM against Chk2.

For `COc1nc(C)ccc1-c1cc(Nc2cnc3ccn(CC4CNC4)c3n2)n[nH]1` [Compound 4], the 50% inhibitory concentration (IC50) at Chk1 was 3 nM; on Chk2 (read-out: Chk2 inhibition IC50), 333 nM.

For `[2H]C([2H])([2H])N1CCC(n2ccc3ncc(Nc4cc(-c5ccc(C)nc5OC)[nH]n4)nc32)CC1` [Compound 21], the half-maximal inhibitory concentration (IC50) at Chk1 was 1 nM; on Chk2 it was 362 nM.

`COc1ccc(F)cc1-c1cc(Nc2cnc3ccn(C4CCNCC4)c3n2)n[nH]1` [Compound 8]: the IC50 on Chk1 came out at 1 nM; on Chk2 (read-out: Chk2 inhibition IC50) it was 188 nM.

For `COc1nc(C)ccc1-c1cc(Nc2cnc3ccn(C4CCNCC4)c3n2)n[nH]1` [Compound 1], the IC50 at Chk1 is less than 1 nM.

As to `COc1ccccc1-c1cc(Nc2cnc3ccn(C4CCNCC4)c3n2)n[nH]1` [Compound 10], the IC50 at Chk1 turned out to be 2 nM; at Chk2 (read-out: Chk2 inhibition IC50), 62 nM.

Take `COc1nc(C)ccc1-c1cc(Nc2cnc3ccn(C[C@H]4CCNC4)c3n2)n[nH]1` [Compound 5]: the IC50 turned out to be 3 nM on Chk1 and 375 nM on Chk2 (read-out: Chk2 inhibition IC50).

On to `Fc1cccc(OC(F)(F)F)c1-c1cc(Nc2cnc3ccn(C4CCNCC4)c3n2)n[nH]1` [Compound 11], for which the concentration for half-maximal inhibition (IC50) was found to be 3 nM at Chk1 and 99 nM on Chk2 (read-out: Chk2 inhibition IC50).

Take `[2H]c1cn(C2CCNCC2)c2nc(Nc3cc(-c4ccc(C)nc4OC)[nH]n3)cnc12` [Compound 6]: the IC50 is less than 1 nM at Chk1 and 64 nM at Chk2.

In general, IC50 refers to the concentration at which inhibition is half-maximal. One may read the bioavailability as dose-corrected exposure relative to a reference, in per cent. As usually defined, the Cmax is the peak of the concentration-time curve. Broadly, the Vd is a proportionality between amount in the body and measured concentration, not a real space. High values mean extensive tissue distribution, low ones confinement near the circulation. Usually clearance stands for a measure of how efficiently the substance is removed, as volume per time. Low values mean a low capacity for elimination, high ones a high capacity for elimination.

Values taken from patent publication US11634424B2 (priority 2019, dated 2023).
